How the values were obtained:
[1] = molecular target: PKC theta kinase (Homo sapiens, UniProt Q04759); experiment: PKC theta coupled-enzyme kinase assay (NADH consumption); type: biochemical; conditions: 240 μM ATP, 30° C.
Experimental: (§1) An assay buffer solution was prepared which consisted of 100 mM HEPES (pH 7.5), 10 mM MgCl2, 25 mM NaCl, 0.1 mM EDTA and 0.01% Brij. An enzyme buffer containing reagents to final assay concentrations of 0.00001% Triton X-100, 200 μg/mL Phosphatidylserine, 20 μg/mL Diacylglycerol, 360 μM NADH, 3 mM phosphoenolpyruvate, 70 μg/mL pyruvate kinase, 24 μg/mL lactate dehydrogenase, 2 mM DTT, 100 μM substrate peptide (ERMRPRKRQGSVRRRV (SEQ ID NO: 1)) and 18 nM PKC theta kinase was prepared in assay buffer. To 60 μL of this enzyme buffer, in a 384 well plate, was added 2 μL of VRT stock solution in DMSO. The mixture was allowed to equilibrate for 10 mins at 30° C. The enzyme reaction was initiated by the addition of 5 μL stock ATP solution prepared in assay buffer to a final assay concentration of 240 μM. Initial rate data was determined from the rate of change of absorbance at 340 nm (corresponding to stoichiometric consumption of NADH) using a Molecular Devices Spectramax plate reader (Sunnyvale, Calif.) over 15 mins at 30° C. For each Ki determination 12 data points covering the VRT concentration range of 0-20 μM were obtained in duplicate (DMSO stocks were prepared from an initial 10 mM VRT stock with subsequent 1:2 serial dilutions). Ki values were calculated from initial rate data by non-linear regression using the Prism software package (Prism 4.0a, Graphpad Software, San Diego, Calif.).

[2] = molecular target: PKC Delta (Homo sapiens, UniProt Q05655); experiment: PKC delta coupled-enzyme kinase assay (NADH consumption); type: biochemical; conditions: 240 μM ATP, 30° C.
Sequence of PKC Delta (Q05655 whole entry): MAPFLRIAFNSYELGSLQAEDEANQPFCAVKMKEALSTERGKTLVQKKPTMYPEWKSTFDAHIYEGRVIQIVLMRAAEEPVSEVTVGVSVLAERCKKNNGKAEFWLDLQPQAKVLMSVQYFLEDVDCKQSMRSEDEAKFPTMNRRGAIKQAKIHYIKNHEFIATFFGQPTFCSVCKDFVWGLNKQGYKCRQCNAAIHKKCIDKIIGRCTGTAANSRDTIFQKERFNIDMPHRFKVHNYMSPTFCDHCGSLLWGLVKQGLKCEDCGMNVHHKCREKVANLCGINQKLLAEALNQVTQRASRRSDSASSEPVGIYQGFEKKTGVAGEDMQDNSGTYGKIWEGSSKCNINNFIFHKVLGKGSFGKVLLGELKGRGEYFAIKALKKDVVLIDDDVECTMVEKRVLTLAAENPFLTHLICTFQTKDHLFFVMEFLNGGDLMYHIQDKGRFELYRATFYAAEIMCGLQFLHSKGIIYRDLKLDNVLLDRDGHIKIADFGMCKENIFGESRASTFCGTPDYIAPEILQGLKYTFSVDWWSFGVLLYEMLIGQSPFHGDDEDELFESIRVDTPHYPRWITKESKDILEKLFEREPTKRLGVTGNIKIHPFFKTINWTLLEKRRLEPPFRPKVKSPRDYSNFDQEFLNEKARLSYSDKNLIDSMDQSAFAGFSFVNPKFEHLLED
Experimental: [The source words this procedure for another target and reports this target under the same test.] as §1

Sequence of PKC theta kinase (Q04759 whole entry): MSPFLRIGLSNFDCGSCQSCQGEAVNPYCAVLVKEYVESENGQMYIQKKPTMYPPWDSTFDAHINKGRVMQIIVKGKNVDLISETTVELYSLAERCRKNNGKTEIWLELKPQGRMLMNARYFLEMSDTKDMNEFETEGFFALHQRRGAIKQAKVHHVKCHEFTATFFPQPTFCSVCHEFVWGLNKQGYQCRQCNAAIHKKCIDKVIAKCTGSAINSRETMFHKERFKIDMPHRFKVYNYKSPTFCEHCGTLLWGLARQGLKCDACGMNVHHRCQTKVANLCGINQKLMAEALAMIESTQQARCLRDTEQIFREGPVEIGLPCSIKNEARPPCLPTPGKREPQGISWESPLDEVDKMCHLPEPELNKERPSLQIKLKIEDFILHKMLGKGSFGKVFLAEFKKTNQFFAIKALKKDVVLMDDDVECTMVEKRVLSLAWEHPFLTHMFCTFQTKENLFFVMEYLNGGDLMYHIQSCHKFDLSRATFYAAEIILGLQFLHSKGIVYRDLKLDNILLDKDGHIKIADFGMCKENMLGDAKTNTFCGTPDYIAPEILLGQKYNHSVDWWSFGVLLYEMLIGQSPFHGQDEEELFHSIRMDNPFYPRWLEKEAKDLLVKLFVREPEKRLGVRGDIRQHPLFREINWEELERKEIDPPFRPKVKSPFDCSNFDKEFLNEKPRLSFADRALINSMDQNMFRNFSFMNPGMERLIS

| Structure (SMILES) | Ki [1] [nM] | Ki [2] [nM] |
| --- | --- | --- |
| CCC(CN)(CNc1ccc(C(F)(F)F)c(-c2n[nH]c3ncccc23)n1)c1ccccc1 (centres unmarked) [Compound 65] | < 500 | < 500 |
| FC(F)(F)c1ccc(NCC2CNC2)nc1-c1n[nH]c2ncccc12 [Compound 66] | > 700 | > 700 |
| CC(C)CC1(CNc2ccc(C(F)(F)F)c(-c3n[nH]c4ncccc34)n2)CNC1 [Compound 67] | < 50 | < 50 |
| CC(C)CC1(CNc2ccc(F)c(-c3n[nH]c4ncccc34)n2)CNC1 [Compound 68] | < 50 | < 50 |
| CCN1CCCC(Oc2ccc(C(F)(F)F)c(-c3n[nH]c4ncccc34)n2)C1 (centres unmarked) [Compound 69] | > 700 | > 700 |
| Nc1cc(Cl)cc(Nc2ccc(C(F)(F)F)c(-c3n[nH]c4ncccc34)n2)c1 [Compound 70] | < 500 | < 500 |
| FC(F)(F)c1ccc(NC2CN3CCC2CC3)nc1-c1n[nH]c2ncccc12 (centres unmarked) [Compound 71] | > 700 | > 700 |
| CC(C)(C)[C@H](N)COc1ccc(C(F)(F)F)c(-c2n[nH]c3ncccc23)n1 [Compound 72] | > 700 | > 700 |
| CC(CO)Nc1ccc(C(F)(F)F)c(-c2n[nH]c3ncccc23)n1 (centres unmarked) [Compound 73] | > 700 | > 700 |
| FC(F)(F)c1ccc(OC[C@@H]2CCCN3CCCC[C@@H]23)nc1-c1n[nH]c2ncccc12 [Compound 74] | > 700 | > 700 |
| CN(CCC#N)c1ccc(C(F)(F)F)c(-c2n[nH]c3ncccc23)n1 [Compound 75] | < 500 | < 500 |
| OCCN(CCO)c1ccc(C(F)(F)F)c(-c2n[nH]c3ncccc23)n1 [Compound 76] | > 700 | > 700 |
| OC[C@H](Cc1ccccc1)Nc1ccc(C(F)(F)F)c(-c2n[nH]c3ncccc23)n1 [Compound 77] | > 700 | > 700 |
| OCc1cccc(Nc2ccc(C(F)(F)F)c(-c3n[nH]c4ncccc34)n2)c1 [Compound 78] | > 700 | > 700 |

More lines, now with the values ahead:

| Ki [1] [nM] | Ki [2] [nM] | Structure (SMILES) |
| --- | --- | --- |
| < 500 | < 500 | OC[C@H](Nc1ccc(C(F)(F)F)c(-c2n[nH]c3ncccc23)n1)c1ccccc1 [Compound 79] |
| > 700 | > 700 | CCC(CO)Nc1ccc(C(F)(F)F)c(-c2n[nH]c3ncccc23)n1 (centres unmarked) [Compound 80] |
| > 700 | > 700 | O[C@H]1CC[C@H](Nc2ccc(C(F)(F)F)c(-c3n[nH]c4ncccc34)n2)CC1 [Compound 81] |
| > 700 | > 700 | OCCNc1ccc(C(F)(F)F)c(-c2n[nH]c3ncccc23)n1 [Compound 82] |
| > 700 | > 700 | CCC(O)CNc1ccc(C(F)(F)F)c(-c2n[nH]c3ncccc23)n1 (centres unmarked) [Compound 83] |
| > 700 | > 700 | OC1CCCCC1Nc1ccc(C(F)(F)F)c(-c2n[nH]c3ncccc23)n1 (centres unmarked) [Compound 84] |
| > 700 | > 700 | FC(F)(F)c1ccc(N[C@@H]2CCc3ccccc32)nc1-c1n[nH]c2ncccc12 [Compound 85] |
| > 700 | > 700 | CC[C@H](CO)Nc1ccc(C(F)(F)F)c(-c2n[nH]c3ncccc23)n1 [Compound 86] |

From patent publication US9029546B2, “Pyrazolopyridine kinase inhibitors” (Vertex Pharmaceuticals Incorporated, priority 2008, dated 2015)
